The source of these data is US7144586B2, “Compositions for preventing hormone induced adverse effects” (Lycored Natural Products Industries Ltd., priority 2000, dated 2006).

“Also recorded” adds a separate entry of the source.

Assay [1] relates to ECC-1 endometrial cancer cells. The assay can be described thus: ECC-1 endometrial cancer cell proliferation assay ([3H]thymidine incorporation). The class given is cell-based, human. Particulars: for genistein-induced cell proliferation: stimulated by genistein at 1 MM (FIG. 4); for cell proliferation ([3H]thymidine incorporation into DNA): 0.4 and 4 μM, after three days (FIG. 1, panel A); for inhibition of cell proliferation: higher, non-physiological concentrations (10 μM), after three days in culture (FIG. 1, panel A); for effect on endometrial cancer cell growth over the concentration range: increasing concentrations, low to high. As to the method: (§1) Tetrahydrofuran (THF) containing 0.25% butylated hydroxytoluene was added to purified carotenoids as an antioxidant. Carotenoids were dissolved in THF at a concentration of 2 mMM and stored at −70 C. Immediately before use, stock solutions were thawed and added to the cell culture medium under nitrogen, followed by vigorous stirring. Precipitates formed were removed by filtration through Millex-HV filter (Millipore). Final carotenoid concentrations in the medium were determined by spectrophotometry after extraction in 2-propanol and n-hexane:dichloronomethane, as in U.S. Pat. No. 5,827,900.
(§2) The human endometrial cancer (estrogen dependent) cell line ECC-1 was developed by Dr. P. G. Satyaswaroop, Pennslyvania State University, Pennsylvania, U.S.A, and generously provided to us by Dr. R. Oregan, Northwestern University, Chicago, Ill., U.S.A. Human mammary cancer cell lines MCF-7 (estrogen dependent) and MDA-231 (hormone independent) were obtained from the American Type Culture Collection (Rockville, Md.).
(§3) Cells were cultured in DMEMM containing penicillin (100 U/ml), streptomycin (0.1 mg/ml)) nystatin (12.5 (g/ml), insulin (0.6 (g/ml), and 10% FCS. Cells were stripped of endogenous steroids according to the procedure of Vignon et al. (1987, Biochem. Biophys. Res. Comm., 146:1502–8) by successive passages in medium without phenol red containing 10% and then 3% of charcoal-stripped FCS. Cells were seeded into 96 multiwell plates (5,000 cells per well) in DMEMM containing 3% of charcoal-stripped FCS. After one day the medium was changed to one containing the solubilized carotenoid or THF alone. The medium was changed daily to ensure a continuous supply of carotenoid.
(§4) After incubation, the number of cells and the rate of cell proliferation were estimated by the incorporation of [^3H]thymidine incorporation into cellular DNA, as described in U.S. Pat. No. 5,827,900. Cell growth was also measured by direct cell counting with a Coulter counter after trypsinization and dilution in Isotone-II (Coulter Electronics, Luton, England). A good correlation was found between the two methods.
ECC-1 cells were incubated with increasing concentrations of the isoflavones genistein and daidzein, the two primary isoflavones in soy products, and with soy extract. Cell proliferation after three days was measured by [^3H]thymidine incorporation into DNA (FIG. 1, panel A).
ECC-1 cells were also incubated with a single high concentration (40 μM) of each of genistein, daidzein and soy extract. Cell proliferation was assayed daily over the course of three days.
(§5) The comparative effects of estradiol and genistein supplementation on the proliferation of the hormone-dependent cell lines MCF-7 mammary cancer and ECC-1 endometrial cancer were examined (FIG. 2).
(§6) Cell cultures stimulated either by genistein or estradiol, as described above, were further supplemented with lycopene and assayed for cell proliferation after three days in culture.
The ECC-1 hormone-dependent cell line was stimulated either by estradiol at 10 nM (FIG. 4, left panel) or by genistein at 1 MM (FIG. 4, panel B) and test cultures were additionally supplemented with various carotenoids.
The hormone-dependent endometrial cancer cell line ECC-1 was stimulated either by estradiol at 10 nM (FIG. 5, left panel) or by genistein at 1 μM (FIG. 5, right panel) and test cultures were additionally supplemented with various concentrations of lycopene. […] The lowest lycopene concentration tested (0.9 μM) is in the physiological range found in human serum.
Background: Incorporation of labelled thymidine or its analogues reports DNA synthesis.

Assay [2] concerns rodent models (rat colon and oral carcinogenesis). Particulars: dietary administration; cited from earlier work.
The subject of assay [3] is estrogen receptor-positive human breast cancer cell lines. Particulars: approximately 0.1 to 2–3 μM; cited from earlier work.
Assay [4] relates to estrogen receptor negative human breast cancer cell lines. As to conditions: approximately 0.1 to 2–3 μM; cited from earlier work.
Assay [5] concerns MCF-7 mammary cancer cells (estrogen dependent). Kind of assay: MCF-7 mammary cancer cell proliferation assay ([3H]thymidine incorporation). It counts as cell-based, human. As to conditions: for phytoestrogen-induced cell proliferation: genistein (4 (M)). Here is the method:
as §1, §2, §3, §4, §5, §6
Thus genistein not only stimulates hormone-dependent cancer cell proliferation, but IGF-I as well as other growth factors further augment this effect.
Cell cultures supplemented as above were further supplemented with lycopene at 3 to 5 μM concentration.

Assay [6] deals with MDA-231 mammary cancer cells (hormone independent). The assay can be described thus: MDA-231 mammary cancer cell proliferation assay ([3H]thymidine incorporation). It counts as cell-based, human. Here is the method: as §1, §2, §3
After incubation, the number of cells and the rate of cell proliferation were estimated by the incorporation of [^3H]thymidine incorporation into cellular DNA, as described in U.S. Pat. No. 5,827,900. Cell growth was also measured by direct cell counting with a Coulter counter after trypsinization and dilution in Isotone-II (Coulter Electronics, Luton, England). A good correlation was found between the two methods. […]

The mark [7] stands for this setting: single high concentration (40 μM), after one day of incubation (FIG. 1, panel B).
[8] abbreviates: lycopene at 3 to 5 μM, three days in culture (FIG. 2).
The mark [9] stands for this setting: high, non-physiological carotenoid concentrations, about one order of magnitude greater than physiological (FIG. 6, panel B).
The mark [10] stands for this setting: lycopene at 3 to 5 μM, IGF-1 30 nM (FIG. 3).

As to `CC1=C(/C=C/C(C)=C/C=C/C(C)=C/C=C/C=C(C)/C=C/C=C(C)/C=C/C2=C(C)C(=O)[C@@H](O)CC2(C)C)C(C)(C)C[C@H](O)C1=O` [astaxanthin], in assay [1], the genistein-induced cell proliferation entry is given as “effective inhibitors; also recorded: effectively inhibited”. The “anti-tumorigenic effects in vivo” value in assay [2] is recorded as “anti-tumorigenic effects”.
As to `CC1=C(/C=C/C(C)=C/C=C/C(C)=C/C=C/C=C(C)/C=C/C=C(C)/C=C/C2=C(C)CCCC2(C)C)C(C)(C)CCC1` [beta-carotene], the genistein-induced cell proliferation result in assay [1] is given as “effective inhibitors; also recorded: effectively inhibited”.
As for `COc1ccc(-c2coc3cc(O)cc(O)c3c2=O)cc1` [biochanin A], the cell proliferation result in assay [3] is “induce cell proliferation”; in assay [4], “not in estrogen receptor negative”.
`O=c1oc2cc(O)ccc2c2oc3cc(O)ccc3c12` [counestrol]: the cell proliferation entry in assay [3] is listed as “induce cell proliferation”; in assay [4] it was “not in estrogen receptor negative”.
Regarding `O=c1c(-c2ccc(O)cc2)coc2cc(O)ccc12` [daidzein, reference compound], in assay [1], the “cell proliferation ([3H]thymidine incorporation into DNA)” value is listed as “significant increase in cell proliferation rate; also recorded: stimulated cell proliferation”, the “inhibition of cell proliferation” value is listed as “not” and the “effect on endometrial cancer cell growth over the concentration range” value is reported as “only stimulatory”. For the same compound, the cell proliferation result in assay [1] (setting [7]) is “significantly increases cell proliferation; also recorded: stimulated cell proliferation”.
Turning to `O=c1c(-c2ccc(O)cc2)coc2cc(O)cc(O)c12` [genistein, reference compound], the cell proliferation entry in assay [1] (40 μM, by the second day in culture (FIG. 1, panel B)) is reported as “inhibitory effects”; in assay [1] (setting [7]), “significantly increases cell proliferation; also recorded: stimulated cell proliferation”; in assay [3], “induce cell proliferation”; in assay [4], “not in estrogen receptor negative”. Besides, the “cell proliferation ([3H]thymidine incorporation into DNA)” value in assay [1] is on record as “significant increase in cell proliferation rate; also recorded: stimulated cell proliferation”. Moreover, in assay [1], the “inhibition of cell proliferation” value is on record as “inhibited cell proliferation”. Moreover, the “effect on endometrial cancer cell growth over the concentration range” value in assay [1] is given as “biphasic effects on proliferation”. In addition, the “stimulatory effect of genistein in the presence of IGF-I” value in assay [5] (genistein plus IGF-1 30 nM, compared to genistein only (FIG. 3, panel A)) is reported as “significantly increases the cell proliferation rate; also recorded: further augmented”. In addition, the “effect on proliferation over the concentration range” value in assay [5] (stimulating at low, inhibiting at high concentrations (FIG. 2, panel A)) is “biphasic effects on proliferation”.
For `O=c1c(O)c(-c2ccc(O)cc2)oc2cc(O)cc(O)c12` [kaempferl], the values for the cell proliferation entry in assay [3] and in assay [4] were “induce cell proliferation” and “not in estrogen receptor negative”, respectively.
For the compound `O=c1cc(-c2ccc(O)c(O)c2)oc2cc(O)cc(O)c12` [luiolin], the cell proliferation entry was “induce cell proliferation” in assay [3] and “not in estrogen receptor negative” in assay [4].
Regarding `CC(C)=CCC/C(C)=C/C=C/C(C)=C/C=C/C(C)=C/C=C/C=C(C)/C=C/C=C(C)/C=C/C=C(\C)CCC=C(C)C` [lycopene], in assay [1] (estradiol at 10 nM, various lycopene concentrations, lowest 0.9 μM (FIG. 5)), the “estradiol-induced cell proliferation, dose dependence” value is listed as “inhibits, in a dose dependent manner; also recorded: effective in inhibiting”. For the same compound, the “genistein-induced cell proliferation, dose dependence” value in assay [1] (genistein at 1 μM, various lycopene concentrations, lowest 0.9 μM (FIG. 5)) is listed as “inhibits, in a dose dependent manner; also recorded: effective in inhibiting”. In addition, in assay [1] (setting [8]), the basal growth result is “significantly inhibited”, the estradiol-induced growth result is on record as “significantly inhibited” and the genistein-induced growth entry was “substantially inhibited; also recorded: significantly inhibited”. For the same compound, the genistein-induced cell proliferation entry in assay [1] was “effective inhibitors; also recorded: effectively inhibited”. The phytoestrogen-induced cell proliferation result in assay [5] (setting [9]) was “effective in significantly inhibiting”. The phytoestrogen-induced cell proliferation entry in assay [5] (low (physiological) concentrations: lycopene 0.4 μM, phytoene and phytofluene mixture 6 μM (FIG. 6, panel A)) is recorded as “do not significantly affect”. In assay [5] (setting [8]), the basal growth entry is recorded as “significantly inhibited” and the estradiol-induced growth entry is given as “significantly inhibited”. In assay [5] (setting [10]), the “IGF stimulation of cell proliferation (IGF-1 and genistein)” value is given as “inhibits the cell proliferation; also recorded: inhibits IGF stimulation”. The genistein-induced growth result in assay [5] (lycopene at 3 to 5 MM, three days in culture (FIG. 2)) is “substantially inhibited; also recorded: significantly inhibited”. In assay [6] (setting [10]), the “IGF stimulation of cell proliferation” value was “inhibits IGF stimulation” and the “cell proliferation relative to controls” value is reported as “reduced to levels less than that of controls”.
Consider `CC(C)=CCC/C(C)=C/CC/C(C)=C/CC/C(C)=C/C=C/C=C(\C)CC/C=C(\C)CC/C=C(\C)CCC=C(C)C` [phytoene], for which the genistein-induced cell proliferation entry in assay [1] is “effective inhibitors”. The phytoestrogen-induced cell proliferation entry in assay [5] (setting [9]) is “effective in significantly inhibiting”.
In the case of “IGF-1: Human recombinant IGF-1 purchased from GroPep”, the cell growth result is “significantly stimulates cell growth” in assay [5] (IGF-1 30 nM (FIG. 3, panel A)) and “significantly stimulates cell growth” in assay [6] (IGF-1 30 nM (FIG. 3, panel B)).
